From patent US9676771B2, “Compounds for inhibiting drug-resistant strains of HIV-1 integrase” (priority 2013, dated 2017)
Read-outs that look alike come from different tables or passages of the source.

What was measured:
in vitro = type: cell-based, human; conditions: human, 50% reduction in the level of ATP in HOS cells
How it was run: (§1)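 Cells exposed to compounds over a concentration range for 48 hrs at 37° C. Viability read as cellular ATP by luciferase (ATPlite) luminescence after lysis, normalised to untreated cells; CC50 derived by regression fit.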

[1] = test system: HIV-1 constructs containing wild-type IN; assay: microbe, parasite or virus in culture; type: cell-based; conditions: for Si (selectivity index): ratio of CC50 to EC50
[2] = test system: HIV-1 constructs containing mutant IN G140S-Q148H; assay: microbe, parasite or virus in culture; type: cell-based; conditions: Human immunodeficiency virus 1
How it was run: (§2)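 Single-round infectivity assay using luciferase-reporter pNLNgoMIVR−ΔEnv.LUC virus carrying site-directed integrase mutants, produced in 293 cells. Activity normalized to infectivity without compound; EC50 from regression fit.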

[3] = test system: HIV-1 constructs containing mutant IN N155H; assay: microbe, parasite or virus in culture; type: cell-based; conditions: Human immunodeficiency virus 1
How it was run: as §2

[4] = test system: HIV-1 constructs containing mutant IN Y143R; assay: microbe, parasite or virus in culture; type: cell-based; conditions: Human immunodeficiency virus 1
How it was run: as §2

[5] = test system: HIV-1 constructs containing mutant IN G118R; assay: microbe, parasite or virus in culture; type: cell-based; conditions: Human immunodeficiency virus 1
Procedure: (§3) Single-Round HIV-1 Infectivity Assay.
(§4) Human embryonyl kidney cell culture cell line 293 was acquired from the American type Culture Collection (ATCC).
(§5) […]. […] The virus-containing supernatants were then harvested, clarified by low-speed centrifugation, filtrated, and diluted for preparation in infection assays. […] After compound incorporation and activation in the cell, 100 μL of virus-stock diluted to achieve a maximum luciferase signal between 0.2 and 1.5 RLUs was added to each well and further incubated at 37° C. for 48 hrs. […] Activity was normalized to infectivity in the absence of target compounds. KaleidaGraph (Synergy Software, Reading, Pa.) was used to perform regression analysis on the data. EC50 values were determined from the fit model.
(§6) pNLNgoMIVR^−ΔEnv.LUC has been described previously (Zhao et al. 2008). The integrase codon reading frame was removed from pNLNgoMIVR^−ΔEnv LUC (between KpnI and SalI sites) and placed between the KpnI and SalI sites of pBluescript II KS+. Using that construct as the wild-type template, we prepared the following HIV-1 Integrase-resistant mutants via the QuikChange II XL (Stratagene, La Jolla, Calif.) site-directed mutagenesis protocol: H51Y, T66I, E92Q, G118R, Y143R, Q148H, Q148K, N155H, R263K, G140S+Q148H, G140A+Q148K, E138K+Q148K, and H51Y+R263K. The following sense with cognate antisense (not shown) oligonucleotides (Integrated DNA Technologies, Coralville, Iowa) were used in the mutagenesis: H51Y, 5′-[…]-3; T66I, 5′-[…]-3′; E92Q, 5′-[…]-3′; G118R, 5′-[…]-3′; E138K, 5′-[…]-3; G140A, 5′-[…]-3; G140S, 5′-[…]-3′; Y143R, 5′-[…]-3′; Q148H, 5′-[…]-3′; Q148K, 5′-[…]-3; N155H, 5′-[…]-3′; R263K 5′-[…]-3′. The double mutation G140S+Q148H was constructed by using the previously generated Q148H mutant and the appropriate oligonucleotide for the 2nd mutation, G140S. The double mutation G140A+Q148K was made by using the Q148K mutant and the appropriate oligonucleotide for the 2nd mutation, G140A. The double mutation E138K+Q148K was made by using the Q148K mutant and the appropriate oligonucleotide for the 2nd mutation, E138K. The double mutation H51Y+R263K was constructed by using the previously generated H51Y mutant and the appropriate oligonucleotides for the 2nd mutation, R263K. The DNA sequence of each construct was verified independently by DNA sequence determination. The mutant integrase coding sequences from pBluescript II KS+ were then subcloned into pNLNgoMIVR^−ΔEnv LUC (between the KpnI and SalI sites) to produce the full-length mutant HIV-1 Integrase constructs. These DNA sequences were additionally checked independently by DNA sequence determination.

[6] = test system: HIV-1 constructs containing mutant IN R263K; assay: Single-round HIV-1 infectivity assay, IN mutant R263K; type: cell-based; conditions: Human immunodeficiency virus 1
Procedure: as §3, §4, §5, §6

[7] = test system: HIV-1 constructs containing mutant IN T66I; assay: Single-round HIV-1 infectivity assay, IN mutant T66I; type: cell-based; conditions: Human immunodeficiency virus 1; Table 8; read-out: EC50 (nM, IN mutants) T66I
Procedure: as §3, §4, §5, §6

[8] = test system: HIV-1 constructs containing mutant IN E92Q; assay: Single-round HIV-1 infectivity assay, IN mutant E92Q; type: cell-based; conditions: Human immunodeficiency virus 1; Table 8; read-out: EC50 (nM, IN mutants) E92Q
Procedure: as §3, §4, §5, §6

[9] = test system: HIV-1 constructs containing mutant IN H51Y; assay: Single-round HIV-1 infectivity assay, IN mutant H51Y; type: cell-based; conditions: Human immunodeficiency virus 1; Table 8; read-out: EC50 (nM, IN mutants) H51Y
Procedure: as §3, §4, §5, §6

[10] = test system: HIV-1 constructs containing mutant IN H51Y/R263K; assay: Single-round HIV-1 infectivity assay, IN double mutant H51Y/R263K; type: cell-based; conditions: Human immunodeficiency virus 1; Table 8; read-out: EC50 (nM, IN mutants) H51Y/R263K
Procedure: as §3, §4, §5, §6

HIV-1 integrase = HIV-1 integrase (Human immunodeficiency virus type 1 group M subtype B, UniProt P12497); assay: biochemical; type: biochemical
How it was run: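 Compounds or DMSO added to 20 nM DNA and 400 nM integrase in 50 mM MOPS pH 7.2, 7.5 mM MgCl2, 14 mM 2-mercaptoethanol; 2 h at 37° C, quenched with formamide/SDS loading buffer. Products resolved on gels, imaged and quantified by densitometry.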

HIV-1 WT IN = assay: High growth serum assays in cells (WT); type: cell-based
[11] = test system: human osteosarcoma (HOS) cells; assay: in vitro; type: cell-based; conditions: Table 3; 50% reduction in the level of ATP in HOS cells
How it was run: as §1

[12] = Human immunodeficiency virus 1, Table 8, WT IN, read-out: EC50 (nM, WT)
[13] = Table 8, read-out: EC50 (nM, IN mutants) G140S/Q148H
[14] = Table 8, read-out: EC50 (nM, IN mutants) N155H
[15] = Table 8, read-out: EC50 (nM, IN mutants) Y143R
[16] = Table 8, read-out: EC50 (nM, IN mutants) G118R
[17] = Table 8, read-out: EC50 (nM, IN mutants) R263K
[18] = Table 4, strand transfer, read-out: IC50 (Strand Transfer)
[19] = Human immunodeficiency virus 1, Table 3, WT IN, read-out: EC50 (nM, WT)
[20] = Table 6, read-out: EC50 (nM, IN Mutants) G118R
[21] = Table 6, read-out: EC50 (nM, IN Mutants) R263K
[22] = Table 4, 3′-processing, read-out: IC50 (3^+-Processing)
[23] = Table 3, G140S-Q148H double mutant, read-out: EC50 (nM, IN Mutants) SH
[24] = Table 3, read-out: EC50 (nM, IN Mutants) N155H
[25] = Table 3, read-out: EC50 (nM, IN Mutants) Y143R

| SMILES | CC50 (in vitro; Table 8) | EC50 [1, 12] | EC50 [2, 13] | EC50 [3, 14] | EC50 [4, 15] | EC50 [5, 16] | EC50 [6, 17] | EC50 [7] | EC50 [8] | EC50 [9] | EC50 [10] | CC50 (in vitro; Table 6) | IC50 (HIV-1 integrase; [18]) | EC50 [1, 19] | also measured |
| --- | --- | --- | --- | --- | --- | --- | --- | --- | --- | --- | --- | --- | --- | --- | --- |
| COc1cc2c(cc1Cc1cccc(Cl)c1F)c(=O)c(C(=O)O)cn2[C@H](CO)C(C)C [EVG, elvitegravir, reference compound] | > 250000 nM | 6.4 ± 0.8 nM | 5700 nM | 90 nM | 7.9 nM | 21 nM | 10 nM | 66.2 nM | 154 nM | 4.5 nM | 52.6 nM | – | – | – | – |
| Cc1nnc(C(=O)NC(C)(C)c2nc(C(=O)NCc3ccc(F)cc3)c(O)c(=O)n2C)o1 [RAL, raltegravir, reference compound] | > 250000 nM | – | – | – | – | 35.5 nM | 5.7 nM | 2.8 nM | 29.8 nM | 3.4 nM | 6 ± 2.3 nM | > 100000 nM | – | – | CC50 (in vitro; Table 2): > 100000 nM; EC50 ([1]; Human immunodeficiency virus 1, Table 6, WT IN, read-out: EC50 (nM, WT)): 4 ± 2 nM |
| Nc1c(C(=O)NCc2ccc(F)cc2F)c(=O)n(O)c2ncccc12 [XZ384, 4-Amino-N-(2,4-difluorobenzyl)-1-hydroxy-2-oxo-1,2-dihydro-1,8-naphthyridine-3-carboxamide] | > 250000 nM | – | – | – | – | 16.1 nM | 6.4 nM | 0.6 nM | 3 nM | 1 nM | 3.2 nM | > 250000 nM | 0.019 ± 0.002 µM | 1.1 ± 0.66 nM | IC50 (HIV-1 integrase; Table 7, 3′-processing, read-out: IC50 (μM) 3′-P): 2.5 ± 0.3 µM; CC50 (in vitro; Table 3): > 250000 nM; EC50 ([1]; Human immunodeficiency virus 1, read-out: EC50 (nM), Table 9, WT, normal 5% serum): 1.1 ± 0.66 nM; EC50 [5, 20]: 16.1 ± 4.6 nM; EC50 [6, 21]: 6.4 ± 2.3 nM; EC50 (HIV-1 WT IN; Human immunodeficiency virus 1, read-out: EC50 (nM), Table 9, 10% FBS): 0.8 ± 0.3 nM; EC50 (HIV-1 WT IN; Human immunodeficiency virus 1, read-out: EC50 (nM), Table 9, 15% FBS): 0.5 ± 0.05 nM |
| Nc1c(C(=O)NCc2ccc(F)cc2F)c(=O)n(O)c2ncc(CCS(=O)(=O)c3ccccc3)cc12 [XZ446, 4-Amino-N-(2,4-difluorobenzyl)-1-hydroxy-2-oxo-6-(2-(phenylsulfonyl)ethyl)-1,2-dihydro-1,8-naphthyridine-3-carboxamide] | > 250000 nM | 2 ± 0.1 nM | 5.2 nM | 2.1 nM | 0.6 nM | 11.4 nM | 5.3 nM | – | 1.2 nM | – | – | – | – | – | IC50 (HIV-1 integrase; Table 10, strand transfer, read-out: IC50 (nM, ST)): 0.0037 ± 0.0013 µM |
| CC(=O)OCCCCCc1cnc2c(c1)c(NCCO)c(C(=O)NCc1ccc(F)cc1F)c(=O)n2O [XZ439, 5-(6-((2,4-Difluorobenzyl)carbamoyl)-8-hydroxy-5-((2-hydroxyethyl)amino)-7-oxo-7,8-dihydro-1,8-naphthyridin-3-yl)pentyl acetate] | > 250000 nM | 5.3 nM | 5.3 nM | 10.3 nM | 4.1 ± 1 nM | 14.5 nM | 3.6 nM | 1.2 nM | 3.8 nM | 7.4 nM | 15.2 nM | – | – | – | – |
| O=C(NCc1ccc(F)cc1F)c1c(NCCCCc2ccccc2)c2cccnc2n(O)c1=O [XZ383, N-(2,4-difluorobenzyl)-1-hydroxy-2-oxo-4-((4-phenylbutyl)amino)-1,2-dihydro-1,8-naphthyridine-3-carboxamide] | – | – | – | – | – | – | – | – | – | – | – | – | 0.28 ± 0.11 µM | 49.9 ± 13 nM | IC50 (HIV-1 integrase; [22]): 12.2 ± 2 µM; CC50 [11]: 102000 ± 8000 nM; Si (selectivity index) ([1]; Table 3): 2,040; EC50 [2, 23]: 243 ± 38.7 nM; EC50 [3, 24]: 116 ± 21.9 nM; EC50 [4, 25]: 39.9 ± 14.7 nM |
| O=C(NCc1ccc(F)cc1F)c1c(NCCO)c2cccnc2n(O)c1=O [XZ378, N-(2,4-difluorobenzyl)-1-hydroxy-4-((2-hydroxyethyl)amino)-2-oxo-1,2-dihydro-1,8-naphthyridine-3-carboxamide] | – | – | – | – | – | – | – | – | – | – | – | 23500 ± 3000 nM | 0.01 ± 0.009 µM | 5.2 ± 0.6 nM | IC50 (HIV-1 integrase; [22]): 0.55 ± 0.07 µM; CC50 (in vitro; Table 3): 23500 ± 3000 nM; Si (selectivity index) ([1]; Table 3): 4,519; EC50 [2, 23]: 43.1 ± 15.3 nM; EC50 [3, 24]: 24.6 ± 3.8 nM; EC50 [4, 25]: 4.6 ± 1.8 nM; EC50 [5, 20]: 27.3 ± 1.4 nM; EC50 [6, 21]: 26 nM |
